Laboratory results taken from patent publication US20230277491A1, “PHARMACEUTICAL COMBINATION COMPRISING GLYCOLIC ACID AND L-ALANINE” (priority 2020, published 2023).

Experiments:
[1] = human, in vivo
Protocol: Preliminary pharmacokinetic analyses were undertaken in order to determine whether the GA and DL administered to the patients orally were absorbed into the blood stream and into the CSF. […] As can also be observed, DL levels reach 140 mg/L in the blood 1-hour post-administration and are reduced to approx. 20 mg/I after 2- or 3-hours post-administration.
As can be observed in FIG. 9, GA levels are approximately 20 mg/I in the CSF 1-hour post-administration. As can also be observed, DL levels are approximately 5 mg/I in the CSF 1-hour post-administration. 100 mg/kg GA and 100 mg/kg DL was administered in patients to obtain the pharmacokinetic data.

HeLa cells = test: NAD(P)H live-cell microscopy; type: cell-based; details: 5 mM, FIG. 13
Protocol: All values were referenced to the value obtained before substance addition.
NAD(P)H live-cell microscopy on HeLa cells was performed as previously described. Briefly, NAD(P)H fluorescence intensity time series were performed on a ZEISS LSM880 inverted confocal equipped with an incubation chamber to maintain 37 Celsius degree and 5% of CO2. […] In order to maximize the transmission efficiency of the system in excitation and detection and reduce the aberrations due to the watery environment, a ZEISS Plan C-ApoChromat 40×/1.2 Water lens with depth compensating correction collar was used. […] The sampling factor in XY (pixel size) of each image was equal to 208 nm, which lead to a final resolution of approximately 600 nm. For each image a volume of 5 μm around the specimen central plane was taken by acquiring 3 planes separated by a Z-step of 2.5 μm.
Time series measurements were obtained with 5 min time resolution. Fluorescence intensity levels were extracted using FIJI Image Analysis Freeware

PARK-7 −/− HeLa cells = test: Cell growth of PARK-7 −/− HeLa cells; type: cell-based, human; details: 5 mM, FIG. 16
Protocol: GA enhances cell proliferation in PARK-7 −/− HeLa cells. […] Knocking-down PARK-7 with CRISP/Cas-9 leads to a reduced cell proliferation when compared to WT cells. […] Treatment with GA increases cell proliferation in HeLa cells.
Cell growth was determined by two different methods. The first method (WST1-Assay) was used to analyze cell growth at different time points using the same plates: 500 cells of 8 different PARK7 KO clones and HeLa Kyoto wild type cells were seeded in 96 well plates (6 wells/line). For each time point (0 h, 48 h, 122 h, and 144 h), WST1 was added to the cells according to the manufacturers instructions and incubated for 30 min at 37° C. Absorbance was measured at 450 nm and 620 nm using an EnVision Plate Reader (PerkinElmer).
The second method was used to analyze the rescue effect of GA and DL. Briefly, HeLa cells were seeded and treated with medium containing distilled water, 5 mM GA, or 5 mM DL. 48 hours later, the number of living cells was calculated with the help of an automated cell counter (ThermoFischer, USA).
HeLa-Kyoto PARK7 KO clones had been kindly provided by Martin Stewart (Koch Institute, MIT, Cambridge, USA). Briefly, cells were electroporated with the NEON device (Invitrogen) using a sgRNA-Cas9-NLS complex targeting human PARK7 at exon 1. […]

[2] = tested on: HeLa cells treated with siRNA against PARK-7/DJ-1; test: Calcium imaging on HeLa cells during mitosis after PARK-7/DJ-1 down-regulation; type: cell-based; details: PARK-7/DJ-1 down-regulated HeLa cells, 5 mM, FIG. 17
Protocol: HeLa cells were loaded with Fluo-4 AM, a dye used to measure calcium concentration in living cells, as described by the manufacturer and recorded for 4 hours. Graphics show the variations in intracellular calcium concentration during mitosis in WT and cells treated with siRNA against PARK-7/DJ-1 to down-regulate this gene.
HeLa-Kyoto cells stably expressing histone H2B-mCherry and mouse DJ-1 were used. Cells were maintained in DMEM supplemented with 10% fetal bovine serum (FBS), 2 mM GlutaMAX, 100 unit/ml penicillin, 100 μg/ml streptomycin. For esiRNA treatment, cells were plated at a density of 15.000 cells/well in an ibidi 8 well chamber (Cat. no 80826, ibidi, Germany, EU), transfected with different esiRNAs (RLUC as empty vector, hPARK-7 and hKIF11 as positive control) (all esiRNAs were obtained from Eupheria, Germany, EU), and left for 72 hours before performing calcium imaging. esiRNA transfection was performed as follows. esiRNA was diluted in distilled water to a concentration of 20 ng/μl. For each well, two solutions were made: 1. […]
We observed that the Fluo-4 AM dye started to leak out of the cells into the medium after 1.5 hours of imaging. […] Images were analyzed using FIJI Image Analysis Freeware (https://fiji.sc). MFI of the Fluo-4 AM signal within the cell was determined using manually selected ROIs covering the whole cell area for each time-point. […]

## O=C(O)CO [GA, 2-hydroxyethanoic acid]
[1]
  GA dose at which the concentration of GA in the blood is too low: lower than 50 mg/kg
  concentration in the CSF: ca. 0.33 mM
  concentration in the blood: 2000 µM
  concentration in the cerebrospinal fluid relative to blood (lower): about 1:6
HeLa cells
  mitochondrial NAD(P)H production: increases mitochondrial NAD(P)H production
PARK-7 −/− HeLa cells
  cell proliferation (number of cells after 48 hours): rescues cell proliferation defects
[2]
  calcium influx during mitosis: able to rescue this phenotype
